Test results published in patent US7598269B2, “Methods and compositions for treating amyloid-related diseases” (Bellus Health (International) Limited, priority 2003, dated 2009).

Legend:
Aβ42 = target: T1, Aβ42 (Homo sapiens, UniProt P05067); test: Short term treatment of TgCRND8 mice: Aβ42 levels in plasma and brain (ELISA); type: in vivo, Mouse; conditions: for Aβ42 Change: plasma, TgCRND8 mice
T1 construct: from tissue; host or cells: plasma and brain homogenate of TgCRND8 transgenic mice (hAPP transgene)
T1 sequence (P05067 672-713 limits assumed): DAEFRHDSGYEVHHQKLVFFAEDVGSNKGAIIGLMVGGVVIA
Description: (§1) Transgenic mice, […]8, expressing the human amyloid precursor protein (hAPP) develop a pathology resembling Alzheimer's disease. In particular, high levels of Aβ40 and Aβ42 have been documented in the plasma and the brain of these animals at 8-9 weeks of age, followed by early accumulation of amyloid plaques similar to the senile plaques observed in […]. These animals also display progressive cognitive deficits that parallel the appearance of degenerative changes. See, […], et al., J. Biol. Chem. 276, 21562-70 (2001). The short term therapeutic effect of 19 compounds of the invention was studied. […] The following abbreviations are used to designate these animals from the 3rd and 4th generation backcross in the present protocol: TgCRND8-2.B6C3F1 (N3); TgCRND8-2.B6C3F1 (N4). Baseline animals (Group 1) consisted of naive TgCRND8-2.B6C3F1(N3) at 11±1 weeks of age. These mice were used to determine the Aβ levels in the plasma and brain of naive transgenic animals at the initiation of treatment. […] At the end of the treatment periods, plasma and perfused brains were collected for quantification of Aβ levels. […] Plasma samples were immediately frozen and stored at -80° C. pending analysis. The brains were removed, frozen, and stored at -80° C. awaiting analysis. […] Samples were spun at 15000 g for 20 minutes and the supernatants were transferred to fresh tubes. […] The tubes were vortexed for 30 seconds and frozen at -80° C. […] Samples were thawed at room temperature, sonicated at 80° C. for 15 minutes and frozen again. This cycle was repeated 3 times to ensure homogeneity and samples were returned to -80° C. pending analysis. Aβ levels were evaluated in plasma and brain samples by ELISA using Human Aβ40 and Aβ42 Fluorometric ELISA kits from Biosource (Cat. […] In short, samples were thawed at room temperature, sonicated for 5 minutes at 80° C. (sonication for brain homogenates; no sonication for plasma samples) and kept on ice. Aβ peptides were captured using 100 μl of the diluted samples to the plate and incubated without shaking at 4° C. overnight. The samples were aspirated and the wells were rinsed 4 times with wash buffer obtained from the Biosource ELISA kit. The anti-Aβ40 or anti-Aβ42 rabbit polyclonal antiserum (specific for the Aβ40 or Aβ42 peptide) was added (100 μl) and the plate was incubated at room temperature for 2 hours with shaking. The wells were aspirated and washed 4 times before adding 100 μl of the alkaline phosphatase labeled anti-rabbit antibody and incubating at room temperature for 2 hours with shaking. The plates were then rinsed 5 times and the fluorescent substrate (100 μl) was added to the plate. The plate was incubated for 35 minutes at room temperature and the plate was read using a titer plate reader at an excitation wavelength of 460 nm and emission at 560 nm. Compounds were scored based on their ability to modulate levels of Aβ peptides in the plasma and the cerebral soluble/insoluble levels in the brain. Levels of Aβ observed in the plasma and brain of treated animals were normalized using values from vehicle-treated (water) or methylcellulose-treated control groups and ranked according to the strength of the pharmacological effect. Increases in the levels of Aβ peptides are indicated using “+” symbols, while decreases in the levels of Aβ peptides are indicated using “-” symbols. The strongest effects are recorded as “+++” or “---” while the weakest are shown as “+” or “-”.

Aβ40 = target: T2, Aβ40 (Homo sapiens, UniProt P05067); test: Short term treatment of TgCRND8 mice: Aβ40 levels in plasma and brain (ELISA); type: in vivo, Mouse; conditions: for Aβ40 Change: plasma, TgCRND8 mice
T2 construct: from tissue; host or cells: plasma and brain homogenate of TgCRND8 transgenic mice (hAPP transgene)
T2 sequence (P05067 672-711 limits assumed): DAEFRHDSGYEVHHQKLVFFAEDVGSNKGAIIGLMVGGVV
Description: as §1

[1] = brain homogenate, vehicle group, Day 14, 250 mg/kg daily subcutaneous
[2] = brain homogenate, vehicle group, Day 28, 250 mg/kg daily subcutaneous
[3] = vehicle (water) group, Day 14, 250 mg/kg daily subcutaneous
[4] = vehicle (water) group, Day 28, 250 mg/kg daily subcutaneous
[5] = brain homogenate, methylcellulose group, Day 14, 250 mg/kg daily oral
[6] = brain homogenate, methylcellulose group, Day 28, 250 mg/kg daily oral
[7] = methylcellulose group, Day 14, 250 mg/kg daily oral
[8] = methylcellulose group, Day 28, 250 mg/kg daily oral

CCCCCNCCCS(=O)(=O)O [CF, 3-pentylamino-1-propanesulfonic acid]
Aβ42 Change Insoluble (Aβ42; [1]): −− (decreases of 20 to 38% are scored as “−−”) | Aβ42 Change Soluble (Aβ42; [1]): − (Decreases in the levels of Aβ of 5 to 19% are scored as “−”) | Aβ42 Change Insoluble (Aβ42; [2]): + (increases in the levels of Aβ (relative to untreated control) of 20 to 39% are scored as “+”) | Aβ40 Change Insoluble (Aβ40; [1]): − (Decreases in the levels of Aβ of 5 to 19% are scored as “−”) | Aβ40 Change Soluble (Aβ40; [1]): ++ (increases of 40 to 69% are scored as “++”) | Aβ40 Change Soluble (Aβ40; [2]): + (increases in the levels of Aβ (relative to untreated control) of 20 to 39% are scored as “+”)

CCCCCCCNCCCS(=O)(=O)O [CX, 3-heptylamino-1-propane-sulfonic acid]
Aβ42 Change Insoluble (Aβ42; [1]): − (Decreases in the levels of Aβ of 5 to 19% are scored as “−”) | Aβ42 Change Soluble (Aβ42; [1]): + (increases in the levels of Aβ (relative to untreated control) of 20 to 39% are scored as “+”) | Aβ42 Change Insoluble (Aβ42; [2]): +++ (increases of 70% or higher are scored as “+++”) | Aβ42 Change Soluble (Aβ42; [2]): ++ (increases of 40 to 69% are scored as “++”) | Aβ42 Change (Aβ42; [3]): ++ (increases of 40 to 69% are scored as “++”) | Aβ42 Change (Aβ42; [4]): + (increases in the levels of Aβ (relative to untreated control) of 20 to 39% are scored as “+”) | Aβ40 Change Insoluble (Aβ40; [1]): − (Decreases in the levels of Aβ of 5 to 19% are scored as “−”) | Aβ40 Change Soluble (Aβ40; [1]): − (Decreases in the levels of Aβ of 5 to 19% are scored as “−”) | Aβ40 Change Insoluble (Aβ40; [2]): + (increases in the levels of Aβ (relative to untreated control) of 20 to 39% are scored as “+”) | Aβ40 Change (Aβ40; [3]): ++ (increases of 40 to 69% are scored as “++”) | Aβ40 Change (Aβ40; [4]): ++ (increases of 40 to 69% are scored as “++”)

CCCCCCCCNCCCS(=O)(=O)O [CZ, 3-octylamino-1-propanesulfonic acid]
Aβ42 Change Insoluble (Aβ42; [5]): −−− (decreases of 39% or more are scored as “−−−”) | Aβ42 Change Soluble (Aβ42; [5]): −−− (decreases of 39% or more are scored as “−−−”) | Aβ42 Change Insoluble (Aβ42; [6]): −− (decreases of 20 to 38% are scored as “−−”) | Aβ42 Change Soluble (Aβ42; [6]): − (Decreases in the levels of Aβ of 5 to 19% are scored as “−”) | Aβ42 Change (Aβ42; [7]): − (Decreases in the levels of Aβ of 5 to 19% are scored as “−”) | Aβ42 Change (Aβ42; [8]): − (Decreases in the levels of Aβ of 5 to 19% are scored as “−”) | Aβ40 Change Insoluble (Aβ40; [5]): −− (decreases of 20 to 38% are scored as “−−”) | Aβ40 Change Soluble (Aβ40; [5]): − (Decreases in the levels of Aβ of 5 to 19% are scored as “−”) | Aβ40 Change Soluble (Aβ40; [6]): − (Decreases in the levels of Aβ of 5 to 19% are scored as “−”) | Aβ40 Change (Aβ40; [7]): − (Decreases in the levels of Aβ of 5 to 19% are scored as “−”)

CC(CO)NCCCS(=O)(=O)O (stereo not drawn) [CW, 3-(1-hydroxy-2-propylamino)-1-propanesulfonic acid]
Aβ42 Change (total levels) (Aβ42; brain homogenate, vehicle group, Day 28, total Aβ42, soluble and insoluble not measured independently): ++ (increases of 40 to 69% are scored as “++”) | Aβ42 Change (Aβ42; [3]): ++ (increases of 40 to 69% are scored as “++”) | Aβ42 Change (Aβ42; [4]): + (increases in the levels of Aβ (relative to untreated control) of 20 to 39% are scored as “+”) | Aβ40 Change (total levels) (Aβ40; brain homogenate, vehicle group, Day 28, total Aβ40, soluble and insoluble not measured independently): + (increases in the levels of Aβ (relative to untreated control) of 20 to 39% are scored as “+”) | Aβ40 Change (Aβ40; [3]): ++ (increases of 40 to 69% are scored as “++”) | Aβ40 Change (Aβ40; [4]): ++ (increases of 40 to 69% are scored as “++”)

O=S(=O)(O)CCCNC1CCCc2ccccc21 (stereo not drawn) [Compound BU, 3-(1,2,3,4-tetrahydro-1-naphthylamino)-1-propanesulfonic acid]
Aβ42 Change Insoluble (Aβ42; [5]): −−− (decreases of 39% or more are scored as “−−−”) | Aβ42 Change Insoluble (Aβ42; [6]): −− (decreases of 20 to 38% are scored as “−−”) | Aβ40 Change Soluble (Aβ40; [5]): − (Decreases in the levels of Aβ of 5 to 19% are scored as “−”) | Aβ40 Change Insoluble (Aβ40; [6]): −− (decreases of 20 to 38% are scored as “−−”) | Aβ40 Change Soluble (Aβ40; [6]): −− (decreases of 20 to 38% are scored as “−−”) | Aβ40 Change (Aβ40; [7]): − (Decreases in the levels of Aβ of 5 to 19% are scored as “−”)

O=S(=O)(O)CCCNCCc1c[nH]c2ccccc12 [Compound BT, 3-{[2-(3-indolyl)ethyl]-amino}-1-propanesulfonic acid]
Aβ42 Change Soluble (Aβ42; [5]): ++ (increases of 40 to 69% are scored as “++”) | Aβ42 Change Soluble (Aβ42; [6]): ++ (increases of 40 to 69% are scored as “++”) | Aβ40 Change Insoluble (Aβ40; [5]): +++ (increases of 70% or higher are scored as “+++”) | Aβ40 Change Insoluble (Aβ40; [6]): ++ (increases of 40 to 69% are scored as “++”) | Aβ40 Change Soluble (Aβ40; [6]): −− (decreases of 20 to 38% are scored as “−−”)

NCCSS(=O)(=O)O [BE]
Aβ42 Change Insoluble (Aβ42; [1]): +++ (increases of 70% or higher are scored as “+++”) | Aβ42 Change Soluble (Aβ42; [1]): +++ (increases of 70% or higher are scored as “+++”) | Aβ42 Change Insoluble (Aβ42; [2]): +++ (increases of 70% or higher are scored as “+++”) | Aβ42 Change Soluble (Aβ42; [2]): +++ (increases of 70% or higher are scored as “+++”) | Aβ42 Change (Aβ42; [3]): +++ (increases of 70% or higher are scored as “+++”) | Aβ42 Change (Aβ42; [4]): +++ (increases of 70% or higher are scored as “+++”) | Aβ40 Change Soluble (Aβ40; [1]): + (increases in the levels of Aβ (relative to untreated control) of 20 to 39% are scored as “+”) | Aβ40 Change Insoluble (Aβ40; [2]): − (Decreases in the levels of Aβ of 5 to 19% are scored as “−”) | Aβ40 Change Soluble (Aβ40; [2]): + (increases in the levels of Aβ (relative to untreated control) of 20 to 39% are scored as “+”) | Aβ40 Change (Aβ40; [3]): ++ (increases of 40 to 69% are scored as “++”) | Aβ40 Change (Aβ40; [4]): +++ (increases of 70% or higher are scored as “+++”)

CC[C@@H](CO)NCCCS(=O)(=O)O [CU, (S)-3-(1-hydroxy-2-butylamino)-1-propanesulfonic acid]
Aβ42 Change Insoluble (Aβ42; [1]): − (Decreases in the levels of Aβ of 5 to 19% are scored as “−”) | Aβ42 Change Soluble (Aβ42; [1]): ++ (increases of 40 to 69% are scored as “++”) | Aβ42 Change Insoluble (Aβ42; [2]): +++ (increases of 70% or higher are scored as “+++”) | Aβ42 Change Soluble (Aβ42; [2]): ++ (increases of 40 to 69% are scored as “++”) | Aβ42 Change (Aβ42; [4]): + (increases in the levels of Aβ (relative to untreated control) of 20 to 39% are scored as “+”) | Aβ40 Change Soluble (Aβ40; [1]): + (increases in the levels of Aβ (relative to untreated control) of 20 to 39% are scored as “+”) | Aβ40 Change Insoluble (Aβ40; [2]): +++ (increases of 70% or higher are scored as “+++”) | Aβ40 Change (Aβ40; [4]): + (increases in the levels of Aβ (relative to untreated control) of 20 to 39% are scored as “+”)

CCCCCCCCCNCCCS(=O)(=O)O [DA, 3-nonylamino-1-propanesulfonic acid]
Aβ42 Change Insoluble (Aβ42; [5]): −− (decreases of 20 to 38% are scored as “−−”) | Aβ42 Change Soluble (Aβ42; [5]): −− (decreases of 20 to 38% are scored as “−−”) | Aβ42 Change Insoluble (Aβ42; [6]): −− (decreases of 20 to 38% are scored as “−−”) | Aβ42 Change (Aβ42; [7]): + (increases in the levels of Aβ (relative to untreated control) of 20 to 39% are scored as “+”) | Aβ42 Change (Aβ42; [8]): + (increases in the levels of Aβ (relative to untreated control) of 20 to 39% are scored as “+”) | Aβ40 Change Insoluble (Aβ40; [5]): −−− (decreases of 39% or more are scored as “−−−”) | Aβ40 Change Soluble (Aβ40; [5]): − (Decreases in the levels of Aβ of 5 to 19% are scored as “−”) | Aβ40 Change Insoluble (Aβ40; [6]): −− (decreases of 20 to 38% are scored as “−−”) | Aβ40 Change Soluble (Aβ40; [6]): −− (decreases of 20 to 38% are scored as “−−”)
